# In US9889135B2, “Companion diagnostic for CDK4 inhibitors” (Memorial Sloan-Kettering Cancer Center, priority 2013, dated 2018):
# What was measured:
# [1] = test system: seven RB-positive patient derived WD/DDLS cell lines; experiment: BrdU incorporation in liposarcoma cell lines; format: cell-based, human; conditions: asynchronously growing cells, 48 hours
# Method: FIG. 1A-C. […] Mean percentage of BrdU incorporation or annexin V+/7-AAD− cells was calculated from three or more independent experiments. Error bars represent standard deviation (*p<0.05).
# Cell lines were developed from WD/DDLS tumors resected from surgical patients after obtaining informed consent. LS8817 and LS0082 have previously been described using the nomenclature DDLS8817 and WD0082. DNA was extracted from cell lines using standard protocols (QIAGEN DNEasy) and lineage confirmed by copy number array to confirm amplification of segment 12q13-15 (Agilent 244K according to manufacturer's specifications). Analysis of comparative genomic hybridization data was performed using a custom pipeline, which conducts the standard circular binary segmentation from the R/bioconductor DNA copy library and processes all samples with the RAE algorithm (47). […]
# shRNA were delivered in the pLKO.1 vector (Sigma) and infected cells selected using puromycin (1 μg/ml); infection with a virus carrying a scramble control ([…]) was used as a control in all experiments utilizing shRNA. […] G0 content was determined by staining with propidium iodine and FACS analyses (49).
# (§1) Cells were stained with BrdU (20 μM for two hours) or annexin V as previously described (22, 48). […] was determined by staining with propidium iodine and FACS analyses (49).
# [2] = test system: MDM2 in SNB19 glioma cells; experiment: MDM2 expression by immunoblot; format: cell-based
# Method: (§2) Antibodies against CDK4 (3F121), MDM2 (N-20 and SMP14), total RB (IF8), Cyclin A (H432), p16 (C20), p53 (DO-1 and Bp53-12), tubulin (C20) and FLAG (M2) were obtained from Santa Cruz Biotechnology, phospho-Rb 780 (#9307) from Cell Signalling, and ARF (3642) from Abeam, HAUSP (A300-033A) from Bethyl Laboratories. Treated cells were lysed with buffer composed of 50 mM Tris-HCl, pH7.4, 250 mM NaCl, 5 mM EDTA, 0.5% NP40, 2 mM PMSF, and supplemented with protease inhibitors. Eighty micrograms of protein were resolved by SDS-PAGE and transferred to PVDF membranes. Membranes were incubated overnight with antibodies (1:1000). […] Cycles were repeated every four weeks and patients are still on trial. Pre-treatment biopsies were collected within two weeks of the first dose and post-treatment biopsies collected after at last three weeks of treatment. Extracts were prepared in 50 mM Tris-HCl, pH7.4, 150 mM NaCl, 1 mM EDTA, 1% NP40, 0.25% sodium deoxycholate and supplemented with mini-protease inhibitor cocktail (Roche). Tumor response was assessed by reference radiologist by CT scan every six weeks for 36 weeks, and every 12 weeks thereafter. The clinical trial was approved by the Institutional Review Board of Memorial Sloan-Kettering Cancer Center and all patients provided written informed consent (NCT01209598).
# [3] = test system: MDM2 in DBTRG-05MG glioma cells; experiment: MDM2 expression by immunoblot; format: cell-based
# Method: as §2
# [4] = test system: MDM2 in T98G glioma cells; experiment: MDM2 expression by immunoblot; format: cell-based
# Method: as §2
# [5] = test system: MDM2 in DKMG glioma cells; experiment: MDM2 expression by immunoblot; format: cell-based
# Method: as §2
# [6] = test system: MDM2 in MCF7 breast cancer cells; experiment: MDM2 expression by immunoblot; format: cell-based
# Method: as §2
# [7] = test system: RB-negative cells; conditions: cited from earlier work
# [8] = test system: seven RB-positive patient derived WD/DDLS cell lines; experiment: cell number by Coulter Counter; format: cell-based, human; conditions: asynchronously growing cells, counted daily for 4 days
# [9] = test system: CEBPα, FABP4 and PPARγ mRNA in LS8107 and LS7785-10 cells; experiment: adipocyte differentiation marker mRNA; format: cell-based, human; conditions: seven days
# Method: FIG. 11. […] Cell lines were maintained in DMEM High glucose (HG) supplemented with 10% heat-inactivated fetal bovine serum. Glioma cell lines, DKMG, SNB19, DBTRG-05MG, and […], were maintained in DMEM HG supplemented with 10% fetal bovine serum and 2 mM glutamine. The MCF7 breast cancer cell line was maintained in RPMI-1640 media supplemented with 10% fetal bovine serum and 2 mM glutamine.
# [10] = test system: LS8107, LS7785-10, LS8313 and LS7785-1 cells; experiment: Oil-Red O staining of lipid droplets; format: cell-based, human
# [11] = test system: E2F7 in WD/DDLS cell lines; experiment: E2F7 levels by immunoblot; format: cell-based, human; conditions: 48 hours
# Description: FIG. 24. […] Tubulin is a loading control. This experiment was repeated at least twice for each cell line.
# [12] = test system: MDM2 transcripts in WD/DDLS cell lines; experiment: MDM2 transcript levels by qPCR; format: cell-based, human; conditions: two days; each cell line
# [13] = test system: MCF7 breast cancer cells; experiment: PD-induced growth arrest (BrdU incorporation); format: cell-based; conditions: BrdU incorporation 7 days after treatment
# Method: (§3) Cell lines were maintained in DMEM High glucose (HG) supplemented with 10% heat-inactivated fetal bovine serum. Glioma cell lines, DKMG, SNB19, DBTRG-05MG, and […], were maintained in DMEM HG supplemented with 10% fetal bovine serum and 2 mM glutamine. The MCF7 breast cancer cell line was maintained in RPMI-1640 media supplemented with 10% fetal bovine serum and 2 mM glutamine.
# (§4) shRNA were delivered in the pLKO.1 vector (Sigma) and infected cells selected using puromycin (1 μg/ml); infection with a virus carrying a scramble control ([…]) was used as a control in all experiments utilizing shRNA. Cell lines were treated with […] or shRNA directed against CDK4 ([…] (SEQ ID NO:4)), MDM2 (M376, […] (SEQ ID NO:5); M380, […] (SEQ ID NO:6)), HAUSP (4057, […] (SEQ ID NO:7); 845, […] (SEQ ID NO:8)) or CDK6 ([…] (SEQ ID NO:9)) for 48 hours to 7 days and stained with BrdU (20 μM for two hours) or annexin V as previously described (22, 48). […] was determined by staining with propidium iodine and FACS analyses (49).
# as §1
# [14] = test system: DKMG glioma cells; experiment: PD-induced growth arrest (BrdU incorporation); format: cell-based; conditions: BrdU incorporation 7 days after treatment
# Method: as §3, §4, §1
# [15] = test system: CHK2 mobility and KAP1 phosphorylation in WD/DDLS cell lines; experiment: markers of ATM activity by immunoblot; format: cell-based, human; conditions: LS8817, LS141, LS8107, LS8313 and LS7785-1
# Description: Extracts from control and irradiated mouse embryo fibroblasts were included as a control. Tubulin is a control. (B) γH2AX and 53BP1 foci were scored in the indicated cell lines. As per (Doll et al., 2009; […] et al., 2012) having a cell with greater than 10 foci (white) is considered positive for DNA damage. As expected for WD/DDLS cell lines the basal level of DNA damage was quite high.
# [16] = ratio of MDM2 detected by Image J scanning in treated versus untreated cultures
compound,measurement,setting,value
CC(=O)c1c(C)c2cnc(Nc3ccc(N4CCNCC4)cn3)nc2n(C2CCCC2)c1=O [PD0332991],incorporation of bromodeoxyuridine (BrdU),[1],significant reduction
same,MDM2 expression levels reduced compared to the non-treated cells,[2],greater than 34%
same,ΔMDM2 with PD,[2]; [16],0.08
same,MDM2 expression levels reduced compared to the non-treated cells,[3],greater than 34%
same,ΔMDM2 with PD,[3]; [16],0.49
same,MDM2 levels,[4]; cells that did not undergo senescence,unaffected
same,ΔMDM2 with PD,[4]; [16],Not detected
same,MDM2 expression levels reduced compared to the non-treated cells,[5],greater than 34%
same,ΔMDM2 with PD,[5]; [16],0.66
same,MDM2 expression levels reduced compared to the non-treated cells,[6],greater than 34%
same,ΔMDM2 with PD,[6]; [16],0.08
same,proliferation of RB-negative cells,[7],no effect
same,growth arrest,[8],growth arrest within a single cell cycle
same,"CEBPα, FABP4 and PPARγ mRNA, markers of differentiated adipocytes",[9],None of these markers increased
same,Oil-Red O staining,[10],not increased
same,E2F7 protein amount,[11]; LS8107,did not change
same,E2F7 protein,"[11]; LS8817, LS0082 and LS8313",induced accumulation
same,MDM2 transcripts,[12],modestly reduced
same,PD-induced growth arrest,[13],+ (BrdU incorporation is reduced at least 8X 7 days after treatment with the drug)
same,PD-induced growth arrest,[14],+ (BrdU incorporation is reduced at least 8X 7 days after treatment with the drug)
same,"CHK2 mobility or KAP1 phosphorylation, markers of ATM activity",[15],did not induce significant changes
